≈ marks a conversion by molar mass, not a printed value. Where “and” joins values, the source holds several entries; their conditions need not be identical. Equal entries are not always repeated.
Legend:
S. aureus ATCC 43300 = experiment: MIC/MBC broth microdilution, S. aureus; type: cell-based, Staphylococcus aureus; settings: for MBC / MIC: S. aureus
S. pyogenes ATCC 19615 = experiment: MIC/MBC broth microdilution, S. pyogenes; type: cell-based, Streptococcus pyogenes; settings: S. pyogenes
Method: (§1) S. aureus (ATCC 29213),S. pyogenes (ATCC 19615),Streptococcus agalactiae (ATCC 27956),Escherichia coli (ATCC 25922),Proteus vulgaris (ATCC 6896),K. pneumoniae (ATCC 700603) andP. aeruginosa (ATCC 10145) reference strains, as well asStaphylococcus cohnii, Enterococcus faecalis, Staphylococcus schleiferi, Staphylococcus intermedius and Streptococcus mutans clinical isolates, were used to test the antibacterial activity of the peptidomimetics. Bacteria were aerobically cultured for 18 h at 37 °C in plates with sterilized brain heart infusion (BHI) broth (Sigma-Aldrich, USA) media mixed with bacteriological agar (Sigma-Aldrich, USA) using the streak plate method. After 18 h, BHI broth was inoculated to 0.5 on the McFarland scale and diluted to approximately 10^5 CFU/mL. To achieve a final stock concentration of 1024 μg/mL, the peptidomimetics were dissolved in sterile water, and 5–10% of absolute ethanol or dimethyl sulfoxide (DMSO) was added. The antibacterial activities were determined by using the standard broth microdilution method of the National Committee for Clinical Laboratory Standards. The process involved adding serially diluted peptidomimetics to consecutive wells of a 96-well microtiter plate (Brand, Germany) holding media with microorganisms. The inoculated plates treated with peptides were then placed in an incubator at 37 °C for 18 h. The MIC value was determined as the lowest concentration of peptidomimetic at which there was no obvious growth (equal or more than 90% of the untreated sample). […] The lowest concentration yielding growth in no more than 3 colonies, corresponding to at least a 99.9% kill rate, was taken as MBC. Each biological replicate included control wells with the addition of water, DMSO, and ethanol as respective solvent controls. All experiments were conducted with consistent adherence to growth and sterility controls and were performed at least in technical triplicate with three biological repeats.

E. faecalis c.i. = experiment: MIC/MBC broth microdilution, E. faecalis; type: cell-based, Enterococcus faecalis
Method: as §1

S. schleiferi c.i. = experiment: MIC/MBC broth microdilution, S. schleiferi; type: cell-based, Staphylococcus schleiferi
Method: as §1

S. intemrdius c.i. = experiment: MIC/MBC broth microdilution, S. intermedius; type: cell-based, Staphylococcus intermedius
Method: as §1

S. mutans c.i. = experiment: MIC/MBC broth microdilution, S. mutans; type: cell-based, Streptococcus mutans
Method: as §1

E. coli ATCC 25922 = experiment: MIC/MBC broth microdilution, E. coli; type: cell-based, Escherichia coli
Method: as §1

P. vulgaris ATCC 6896 = experiment: MIC/MBC broth microdilution, P. vulgaris; type: cell-based, Proteus vulgaris
Method: as §1

[1] = tested on: K. pneumoniae ATCC 700603; experiment: MIC/MBC broth microdilution, K. pneumoniae; type: cell-based
Method: as §1

P. aeruginosa ATCC 10145 = experiment: MIC/MBC broth microdilution, P. aeruginosa; type: cell-based
Method: as §1

[2] = Hydrophobicity by reverse-phase chromatography; type: physicochemical; settings: acetonitrile content in the mobile phase at the retention time
Source text: Reverse-phase chromatography was employed to assess the hydrophobicity characteristics of the peptidomimetics. Hydrophobicity was quantified by determining the acetonitrile content in the mobile phase at the retention time of a peptidyl derivative (Table S2). The least hydrophobic compound (40% acetonitrile) was A-198, which aligns with the calculations of hydrophobicity by SwissADME and pkCSM (Table ). Next in the hydrophobicity sequence were A-197, A-220, A-219, A-174, and A-221, eluting with 42.5-43.9% of acetonitrile. Then there were followed by […], and A-179, with the acetonitrile percentage of 44.8-49.8. The compounds A-176, A-20, A-152, A-134, and A-210 needed over 50% of acetonitrile to be eluted from the column.

fibroblasts (46BR.1N) = experiment: LDH cytotoxicity test, fibroblasts; type: cell-based; settings: 48 h, 50-150 μg/mL
Method: In our study, we used two distinct cell types: immortalized human HaCaT keratinocytes (DKFZ, Heidelberg, Germany) and a human dermal fibroblast cell line (46BR.1N). […] Cultures were maintained in a humidified atmosphere with 5% CO2 at 37 °C in 25 cm^2 culture flasks with the medium replenished every 2 days. The condition of the cells was monitored using optical microscopy.
Cell death in immortalized human keratinocytes (HaCaT) and fibroblasts (46BR.1N) was measured by quantifying the lactate dehydrogenase (LDH) activity using a commercial kit (Roche, Switzerland). Cells were seeded in 96-well plates at a density of 5000 cells per well in DMEM high glucose medium supplemented with 10% FBS. After 24 h of incubation, the medium was replaced with serum-free medium containing various concentrations of peptidomimetics (50, 100, and 150 μg/mL). After 48 h, supernatants were collected for LDH analysis. Plate readings were taken spectrophotometrically using a 450 nm wavelength. Cell death measurements were normalized to an untreated control (0%), with 1% Triton X-100 detergent used as a positive control to induce maximum LDH release, indicating maximal cytotoxicity. Statistical significance was determined with a Mann–Whitney U test with a statistical significance p ≤ 0.05. Analysis was performed with Statistica software (Krakow, Poland) and graphs were prepared in GraphPad Prism (Boston, USA).

[3] = tested on: immortalized human HaCaT keratinocytes; experiment: XTT cell proliferation assay, keratinocytes; type: cell-based; settings: XTT
Method: (§2) In our study, we used two distinct cell types: immortalized human HaCaT keratinocytes (DKFZ, Heidelberg, Germany) and a human dermal fibroblast cell line (46BR.1N). […] Cultures were maintained in a humidified atmosphere with 5% CO2 at 37 °C in 25 cm^2 culture flasks with the medium replenished every 2 days. The condition of the cells was monitored using optical microscopy. […] After 24 h of incubation, the medium was replaced with serum-free HG-DMEM containing appropriate concentrations of peptidomimetics. All solutions used in the experiments were prepared with double-distilled water or with the addition of ethanol under sterile conditions to ensure compatibility with the conditions of the bacteriological assay. For 72 h of incubation, half of the medium was replaced with fresh medium after 48 h, and cells were stimulated with peptides for a second time. The XTT cell proliferation assay was then performed according to the manufacturer’s instructions (Roche, Switzerland). Cells were treated with the peptides for either 48 or 72 h, followed by the addition of XTT reagent, and the plates were then incubated at 37 °C in a 5% CO2 environment for 4 h. Plate readings were taken using a standard plate reader at a wavelength of 490 nm (OD = 490 nm). […] Statistical significance was determined with a Mann–Whitney U test with statistical significance p ≤ 0.05. Analysis was performed with Statistica software, and graphs were prepared in GraphPad Prism.

[4] = tested on: human dermal fibroblast cell line (46BR.1N); experiment: XTT cell proliferation assay, fibroblasts; type: cell-based; settings: XTT
Method: as §2

CC(C)[C@@H](CNC(=O)C(=Cc1ccccc1)c1ccccc1)NC(=O)[C@H](CCCNC(=N)N)NC(=O)[C@H](CCCCN)NC(=O)OCc1ccccc1 [Compound A-191]
MBC (S. aureus ATCC 43300; H2O): 32 µg/mL (≈ 44 µM) | MIC (S. aureus ATCC 43300; H2O): 32 µg/mL (≈ 44 µM) | MBC (S. aureus ATCC 43300; water additive DMSO): 32 µg/mL (≈ 44 µM) | MIC (S. aureus ATCC 43300; water additive DMSO): 16 µg/mL (≈ 22 µM) | MBC (S. aureus ATCC 43300; water additive EtOH): 32 µg/mL (≈ 44 µM) | MIC (S. aureus ATCC 43300; water additive EtOH): 16 µg/mL (≈ 22 µM) | MIC value for S. aureus (S. aureus ATCC 43300; additive not stated): 16 µg/mL | MBC (S. pyogenes ATCC 19615; H2O): 4 µg/mL (≈ 5.5 µM) | MIC (S. pyogenes ATCC 19615; H2O): 4 µg/mL (≈ 5.5 µM) | MBC (S. pyogenes ATCC 19615; water additive DMSO): 8 µg/mL (≈ 11 µM) | MIC (S. pyogenes ATCC 19615; water additive DMSO): 4 µg/mL (≈ 5.5 µM) | MBC (S. pyogenes ATCC 19615; water additive EtOH): 8 µg/mL (≈ 11 µM) | MIC (S. pyogenes ATCC 19615; water additive EtOH): 4 µg/mL (≈ 5.5 µM) | MBC (E. faecalis c.i.; H2O): > 512 µg/mL | MIC (E. faecalis c.i.; H2O): 512 µg/mL (≈ 704 µM) | MBC (E. faecalis c.i.; water additive DMSO): > 512 µg/mL | MIC (E. faecalis c.i.; water additive DMSO): 512 µg/mL (≈ 704 µM) | MIC (E. faecalis c.i.; water additive EtOH): > 512 µg/mL | MBC (S. schleiferi c.i.; H2O): 32 µg/mL (≈ 44 µM) | MIC (S. schleiferi c.i.; H2O): 8 µg/mL (≈ 11 µM) | MBC (S. schleiferi c.i.; water additive DMSO): 32 µg/mL (≈ 44 µM) | MIC (S. schleiferi c.i.; water additive DMSO): 8 µg/mL (≈ 11 µM) | MBC (S. schleiferi c.i.; water additive EtOH): 32 µg/mL (≈ 44 µM) | MIC (S. schleiferi c.i.; water additive EtOH): 8 µg/mL (≈ 11 µM) | MIC (S. intemrdius c.i.; H2O): 32 µg/mL (≈ 44 µM) | MIC (S. intemrdius c.i.; water additive DMSO): 32 µg/mL (≈ 44 µM) | MIC (S. intemrdius c.i.; water additive EtOH): 32 µg/mL (≈ 44 µM) | MIC (S. mutans c.i.; water additive DMSO): 32 µg/mL (≈ 44 µM) | MIC (S. mutans c.i.; water additive EtOH): 32 µg/mL (≈ 44 µM) | MBC (E. coli ATCC 25922; H2O): > 512 µg/mL | MIC (E. coli ATCC 25922; H2O): 512 µg/mL (≈ 704 µM) | MBC (E. coli ATCC 25922; water additive DMSO): > 512 µg/mL | MIC (E. coli ATCC 25922; water additive DMSO): 512 µg/mL (≈ 704 µM) | MBC (E. coli ATCC 25922; water additive EtOH): > 512 µg/mL | MIC (E. coli ATCC 25922; water additive EtOH): 512 µg/mL (≈ 704 µM) | MBC (P. vulgaris ATCC 6896; H2O): > 512 µg/mL | MIC (P. vulgaris ATCC 6896; H2O): 512 µg/mL (≈ 704 µM) | MIC (P. vulgaris ATCC 6896; water additive DMSO): > 512 µg/mL | MBC (P. vulgaris ATCC 6896; water additive EtOH): > 512 µg/mL | MIC (P. vulgaris ATCC 6896; water additive EtOH): 512 µg/mL (≈ 704 µM) | MIC ([1]; H2O): > 512 µg/mL | MIC ([1]; water additive DMSO): > 512 µg/mL | MBC ([1]; water additive EtOH): > 512 µg/mL | MIC ([1]; water additive EtOH): 512 µg/mL (≈ 704 µM) | MBC (P. aeruginosa ATCC 10145; H2O): 256 µg/mL (≈ 352 µM) | MBC (P. aeruginosa ATCC 10145; water additive DMSO): 256 µg/mL (≈ 352 µM) | % AcCN (acetonitrile required for elution from the column) [2]: 44.8% and 44.8–49.8% | cytotoxicity (LDH), in words (fibroblasts (46BR.1N)): high cytotoxic effect only to fibroblasts at the highest tested concentration | proliferation relative to control at 100 and 150 μg/mL [3]: ≤ 20% | effect on proliferation, in words ([3]; 48 and 72 h, 0.01–150 μg/mL): negative impact | proliferation relative to control at 100 and 150 μg/mL [4]: ≤ 20% | effect on proliferation, in words ([4]; 48 and 72 h, 0.01–150 μg/mL): negative impact

Reference: publication PMC12332667, “Role of Structural Modifications in Peptidomimetic Compounds as Potential Antimicrobial Agents against Staphylococcus aureus and Streptococcus pyogenes: Balancing Bioavailability, Safety, and Antimicrobial Activity” (ACS Omega, 2025)
